Laboratory results published in ChEMBL document CHEMBL1201862, “PubChem BioAssay data set” (2004).
Calls of active or inactive are those of the source.

Tests used:
[1] = target: Heat shock protein HSP 90-alpha (Homo sapiens, UniProt P07900); assay: Luminescence-based dose response biochemical high throughput screening assay for inhibitors of the Heat Shock Protein 90 (HSP90). [Related pubchem assays: 1831 (Summary AID.), 1846 (Confirmation screen.), 1789 (Primary screen.)]
Protein RecA = target: T1, Protein RecA (Mycobacterium tuberculosis, UniProt P9WHJ3); assay: Fluorescence Cell-Free Homogeneous Dose Retest to Identify Inhibitors of RecA-Intein Splicing Activity. [Related pubchem assays (depositor defined):AID2097, AID2223, AID489010, AID492950]; format: functional
T1 sequence (P9WHJ3 whole entry): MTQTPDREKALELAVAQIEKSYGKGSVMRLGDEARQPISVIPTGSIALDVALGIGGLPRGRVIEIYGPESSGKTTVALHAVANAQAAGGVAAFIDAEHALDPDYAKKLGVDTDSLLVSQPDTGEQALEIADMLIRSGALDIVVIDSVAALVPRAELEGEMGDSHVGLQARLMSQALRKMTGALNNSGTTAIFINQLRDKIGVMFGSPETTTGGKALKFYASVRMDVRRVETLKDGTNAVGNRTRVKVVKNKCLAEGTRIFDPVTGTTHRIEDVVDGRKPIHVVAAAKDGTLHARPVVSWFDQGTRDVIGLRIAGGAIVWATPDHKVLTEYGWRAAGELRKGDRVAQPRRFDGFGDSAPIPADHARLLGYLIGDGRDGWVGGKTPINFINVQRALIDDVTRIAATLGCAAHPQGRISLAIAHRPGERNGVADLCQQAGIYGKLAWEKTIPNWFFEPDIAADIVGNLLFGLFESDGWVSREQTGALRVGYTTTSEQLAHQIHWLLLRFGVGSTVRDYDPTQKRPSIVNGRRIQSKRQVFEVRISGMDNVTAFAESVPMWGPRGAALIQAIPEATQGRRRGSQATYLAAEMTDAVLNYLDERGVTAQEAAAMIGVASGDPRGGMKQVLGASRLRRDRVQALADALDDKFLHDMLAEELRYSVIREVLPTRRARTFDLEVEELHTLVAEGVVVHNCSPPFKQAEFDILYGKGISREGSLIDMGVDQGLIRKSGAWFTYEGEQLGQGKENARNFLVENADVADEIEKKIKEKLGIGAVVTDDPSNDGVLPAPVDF

[2] = target: T2, Mitochondrial peptide methionine sulfoxide reductase (Bos taurus, UniProt P54149); format: functional;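 further: absorbance read-out, biochemical high-throughput dose-response screen for MsrA inhibitors, confirmatory; recombinant bovine MsrA coupled to E. coli TrxB with NADPH and selenocystamine; potency is for inhibitors of MsrA activity on DMSO substrate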
T2 sequence (P54149 whole entry): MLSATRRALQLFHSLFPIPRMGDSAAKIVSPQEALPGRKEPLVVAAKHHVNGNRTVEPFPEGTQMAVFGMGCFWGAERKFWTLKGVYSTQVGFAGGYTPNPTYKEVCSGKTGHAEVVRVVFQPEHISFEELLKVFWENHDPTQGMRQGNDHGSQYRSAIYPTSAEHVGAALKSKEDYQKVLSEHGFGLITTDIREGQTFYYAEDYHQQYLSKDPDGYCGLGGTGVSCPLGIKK

[3] = luciferase reporter signal suppression in cells – H4 neuroglioma cells, luminescence, dose response (AID 1990); format: functional, cell-based
BJ [4] = assay: BJ-TERT fibroblast viability loss – cell-based, RAS-independent, luminescence, dose response (AID 1933); format: functional; details: Homo sapiens
[5] = alpha-synuclein stem-loop luciferase translation blockers – H4 neuroglioma cells, luminescence, confirmation (AID 1988); format: functional, cell-based
BJ [6] = assay: cells; format: functional, cell-based; details: Homo sapiens
[7] = Luminescence-based counterscreen assay for KLF5 inhibitors: dose response cell-based high throughput screening assay to identify cytotoxic compounds using the IEC-6 intestinal epithelial cell line. [Related pubchem assays: 1700 (Primary screen.), 1834 (Confirmation screen.), 1858 (Summary AID.), 1905 (Counterscreen.)]; format: functional
[8] = DRD fibroblast viability loss – cell-based, non-viral oncogenic, luminescence, dose response (AID 1934); format: functional; details: Homo sapiens
[9] = MIN6 cell viability loss – mouse insulinoma, cytotoxicity control, dose response (AID 2122); format: functional;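 further: confirmatory high-throughput counterscreen run to flag cytotoxic compounds; mouse MIN-6 beta cells carrying an insulin promoter eGFP reporter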
Beta-galactosidase = Beta-galactosidase (Escherichia coli, UniProt Q8VNN2); assay: PubChem AID 485352; format: functional
Beta-galactosidase, sequence (Q8VNN2 whole entry): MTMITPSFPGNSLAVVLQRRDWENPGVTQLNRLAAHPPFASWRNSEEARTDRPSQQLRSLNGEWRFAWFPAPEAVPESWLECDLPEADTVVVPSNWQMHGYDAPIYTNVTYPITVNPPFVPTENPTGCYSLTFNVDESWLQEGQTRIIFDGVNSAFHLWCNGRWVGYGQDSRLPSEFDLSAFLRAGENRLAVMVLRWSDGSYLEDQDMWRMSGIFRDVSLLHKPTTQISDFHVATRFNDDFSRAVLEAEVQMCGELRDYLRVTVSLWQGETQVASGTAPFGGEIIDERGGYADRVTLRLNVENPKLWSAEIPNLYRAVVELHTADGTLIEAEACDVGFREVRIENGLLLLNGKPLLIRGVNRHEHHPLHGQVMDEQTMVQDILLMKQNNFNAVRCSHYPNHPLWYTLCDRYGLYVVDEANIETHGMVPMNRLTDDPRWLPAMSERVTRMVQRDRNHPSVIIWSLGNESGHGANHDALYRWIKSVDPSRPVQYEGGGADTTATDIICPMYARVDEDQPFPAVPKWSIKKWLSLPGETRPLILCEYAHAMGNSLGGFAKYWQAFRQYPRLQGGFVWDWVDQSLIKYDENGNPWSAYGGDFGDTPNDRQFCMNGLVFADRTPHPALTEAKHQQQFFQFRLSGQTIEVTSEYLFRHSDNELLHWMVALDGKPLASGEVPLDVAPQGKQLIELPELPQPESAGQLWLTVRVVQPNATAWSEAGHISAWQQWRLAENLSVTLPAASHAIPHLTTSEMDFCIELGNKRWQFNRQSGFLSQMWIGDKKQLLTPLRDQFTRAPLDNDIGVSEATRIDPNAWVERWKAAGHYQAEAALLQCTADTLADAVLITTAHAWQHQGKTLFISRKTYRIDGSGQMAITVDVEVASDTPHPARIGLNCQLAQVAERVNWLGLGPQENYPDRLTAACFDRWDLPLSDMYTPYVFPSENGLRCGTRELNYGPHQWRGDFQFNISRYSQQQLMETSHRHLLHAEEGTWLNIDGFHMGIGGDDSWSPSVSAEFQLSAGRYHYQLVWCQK

[10] = target: T3, Serine/threonine-protein phosphatase (Candida dubliniensis (strain CD36 / CBS 7987 / NCPF 3949 / NRRLY-17841) (Yeast), UniProt B9W6M3); assay: blockers of CaCl2-induced CDRE-lacZ signaling – S. cerevisiae, luminescence, secondary, dose response (AID 2388); format: functional, cell-based;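 further: yeast reporter cells carrying a calcineurin-responsive lacZ construct stimulated with calcium chloride; luminescent beta-galactosidase reporter signal in whole cells rather than isolated phosphatase activity; potency for inhibition where a drop in reporter signal means calcineurin blockade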
T3 sequence (B9W6M3 whole entry): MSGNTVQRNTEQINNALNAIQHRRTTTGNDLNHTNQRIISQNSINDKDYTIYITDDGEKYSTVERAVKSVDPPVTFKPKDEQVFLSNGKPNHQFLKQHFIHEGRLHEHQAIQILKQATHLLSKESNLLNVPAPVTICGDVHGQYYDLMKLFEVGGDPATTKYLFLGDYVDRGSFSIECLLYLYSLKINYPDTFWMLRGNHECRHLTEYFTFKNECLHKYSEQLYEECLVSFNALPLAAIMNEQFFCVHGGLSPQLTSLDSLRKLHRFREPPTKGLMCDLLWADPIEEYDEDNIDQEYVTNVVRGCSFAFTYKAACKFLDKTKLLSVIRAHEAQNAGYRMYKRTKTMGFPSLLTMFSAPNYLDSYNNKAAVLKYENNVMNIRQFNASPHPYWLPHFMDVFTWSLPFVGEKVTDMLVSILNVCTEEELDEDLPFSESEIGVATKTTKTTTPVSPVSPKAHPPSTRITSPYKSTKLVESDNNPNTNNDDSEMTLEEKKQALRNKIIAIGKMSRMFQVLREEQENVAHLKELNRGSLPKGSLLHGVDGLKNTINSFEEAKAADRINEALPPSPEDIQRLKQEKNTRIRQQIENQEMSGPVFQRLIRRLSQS

[11] = target: T4, Sphingosine 1-phosphate receptor 4 (Homo sapiens, UniProt O95977); assay: Fluorescence dose response cell-based high throughput screening assay for antagonists of the Sphingosine 1-Phosphate Receptor 4 (S1P4). [Related pubchem assays: 1524 (Confirmation in triplicates.), 1510 (Primary screen.)]; format: functional
T4 sequence (O95977 whole entry): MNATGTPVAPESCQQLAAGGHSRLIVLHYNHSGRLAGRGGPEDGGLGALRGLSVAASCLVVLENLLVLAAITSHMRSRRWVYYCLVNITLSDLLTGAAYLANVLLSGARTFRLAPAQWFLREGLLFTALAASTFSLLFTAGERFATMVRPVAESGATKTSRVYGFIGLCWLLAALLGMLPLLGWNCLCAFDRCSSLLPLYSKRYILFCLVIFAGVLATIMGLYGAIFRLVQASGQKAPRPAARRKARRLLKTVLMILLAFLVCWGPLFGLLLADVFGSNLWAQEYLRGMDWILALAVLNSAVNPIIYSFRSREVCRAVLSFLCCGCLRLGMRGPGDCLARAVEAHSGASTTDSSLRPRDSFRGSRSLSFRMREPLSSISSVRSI

[12] = Vero E6 cell cytotoxicity, dose response, cytotoxicity control for non-replicating M. tuberculosis project, secondary assay (AID 492998); format: functional, VeroE6; details: Vero C1008
[13] = reduction of Shn3 3'UTR-driven luciferase in osteoblasts – cell-based, Clone20 osteoblasts, firefly luciferase, cherry-picked, dose response (AID 624132); format: functional;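 further: firefly luciferase luminescence from reporter carrying the Shn3 3'UTR in osteoblasts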
[14] = loss of viability in HepG2 cells – cell-based, CellTiter-Glo, cherry-picked, cytotoxicity control for Shn3 inhibitor project, dose response (AID 624134); format: functional

**Q.** What does the source list for CCc1ccc(S(=O)(=O)/N=C2\C=C(Nc3ccc(C(=O)O)cc3)C(=O)c3ccccc32)cc1?
**A.** IC50 [1]: 0.966 µM (active); EC50 (Protein RecA): 0.124 µM (active); IC50 [2]: 5 µM (active)

**Q.** With COc1cccc(/C=N/Nc2ccc([N+](=O)[O-])cn2)c1O as the compound, how does the EC50 [3] read?
**A.** 2.97 µM (active)

**Q.** And the EC50 (BJ [4])?
**A.** 3.31 µM (inconclusive)

**Q.** And the EC50 [5]?
**A.** 0.54 µM (active)

**Q.** And the EC50 (BJ [6])?
**A.** 9.14 µM (inconclusive)

**Q.** What about the IC50 [7] of the same compound?
**A.** 16.2 µM (not active)

**Q.** And the EC50 [8]?
**A.** 3.96 µM (active)

**Q.** Which IC50 [9] does the source give for Oc1c(C(c2ccccc2Cl)N2CCCC2)ccc2cccnc12 (stereo unspecified) here?
**A.** 4.59 µM (active)

**Q.** And the EC50 (Beta-galactosidase)?
**A.** > 40 µM (inactive)

**Q.** What about the EC50 [10] of the same compound?
**A.** > 180 µM (inactive)

**Q.** And the IC50 [11]?
**A.** 2.25 µM (active)

**Q.** What about the CC50 [12] of the same compound?
**A.** 9.56 µM (active)

**Q.** And the AC50 [13]?
**A.** 5.77 µM (active)

**Q.** What about the AC50 [14] of the same compound?
**A.** 46.9 µM (active)
